Data from PubChem BioAssay (NCI).
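Protocol summary: plate cells (96-well), add compound at 5 concentrations, incubate 48 h, interpolate endpoints linearly. Here, GI50 denotes the concentration required for 50% inhibition of growth. TGI: total growth inhibition.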

Legend:
Experiment in all cases: NCI tumour cell line growth inhibition, 48 h
IGROV1 ovarian = system: IGROV1 ovarian
NCI/ADR-RES ovarian = system: NCI/ADR-RES ovarian
NCI-H460 lung = system: NCI-H460 lung
NCI-H23 lung = system: NCI-H23 lung
M14 melanoma = system: M14 melanoma
U251 CNS = system: U251 CNS
OVCAR-5 ovarian = system: OVCAR-5 ovarian
OVCAR-4 ovarian = system: OVCAR-4 ovarian
HCC-2998 colon = system: HCC-2998 colon
SF-268 CNS = system: SF-268 CNS
SK-MEL-2 melanoma = system: SK-MEL-2 melanoma
A549 NSCLC = system: A549 NSCLC
A498 renal = system: A498 renal
MDA-MB-435 = system: MDA-MB-435
MCF7 breast = system: MCF7 breast
HCT-15 colon = system: HCT-15 colon
SK-MEL-28 melanoma = system: SK-MEL-28 melanoma
SK-MEL-5 melanoma = system: SK-MEL-5 melanoma
HCT-116 colon = system: HCT-116 colon
KM12 colon = system: KM12 colon
SF-539 CNS = system: SF-539 CNS
COLO 205 colon = system: COLO 205 colon
HOP-92 NSCLC = system: HOP-92 NSCLC
CCRF-CEM leukemia = system: CCRF-CEM leukemia
SNB-19 CNS = system: SNB-19 CNS
EKVX NSCLC = system: EKVX NSCLC
HT29 colon = system: HT29 colon
BT-549 breast = system: BT-549 breast
MDA-MB-231 breast = system: MDA-MB-231 breast
UO-31 renal = system: UO-31 renal
SK-OV-3 ovarian = system: SK-OV-3 ovarian
CAKI-1 renal = system: CAKI-1 renal
NCI-H522 lung = system: NCI-H522 lung
SN12C renal = system: SN12C renal
OVCAR-3 ovarian = system: OVCAR-3 ovarian
MALME-3M melanoma = system: MALME-3M melanoma
ACHN renal = system: ACHN renal
786-0 renal = system: 786-0 renal
DU-145 prostate = system: DU-145 prostate
RXF 393 renal = system: RXF 393 renal
PC-3 prostate = system: PC-3 prostate
SW-620 colon = system: SW-620 colon
UACC-257 melanoma = system: UACC-257 melanoma
SR leukemia = system: SR leukemia
HOP-62 NSCLC = system: HOP-62 NSCLC
HL-60(TB) leukemia = system: HL-60(TB) leukemia
RPMI-8226 leukemia = system: RPMI-8226 leukemia
K-562 leukemia = system: K-562 leukemia
HS 578T breast = system: HS 578T breast
LOX IMVI melanoma = system: LOX IMVI melanoma
NCI-H226 lung = system: NCI-H226 lung
TK-10 renal = system: TK-10 renal
T-47D breast = system: T-47D breast
MOLT-4 leukemia = system: MOLT-4 leukemia
UACC-62 melanoma = system: UACC-62 melanoma
SNB-75 CNS = system: SNB-75 CNS
SF-295 CNS = system: SF-295 CNS

COC1=C(OC)C(=O)C(CCCCCCCCCC[P+](c2ccccc2)(c2ccccc2)c2ccccc2)=C(C)C1=O
GI50 (IGROV1 ovarian): 187 nM | TGI (IGROV1 ovarian): 1870 nM | GI50 (NCI/ADR-RES ovarian): 3130 nM | TGI (NCI/ADR-RES ovarian): 20300 nM | GI50 (NCI-H460 lung): 266 nM | TGI (NCI-H460 lung): 1160 nM | GI50 (NCI-H23 lung): 160 nM | TGI (NCI-H23 lung): 930 nM | GI50 (M14 melanoma): 366 nM | TGI (M14 melanoma): 1700 nM | GI50 (U251 CNS): 104 nM | TGI (U251 CNS): 1170 nM | GI50 (OVCAR-5 ovarian): 361 nM | TGI (OVCAR-5 ovarian): 1410 nM | GI50 (OVCAR-4 ovarian): 166 nM | TGI (OVCAR-4 ovarian): 2860 nM | GI50 (HCC-2998 colon): 247 nM | TGI (HCC-2998 colon): 1380 nM | GI50 (SF-268 CNS): 345 nM | TGI (SF-268 CNS): 1440 nM | GI50 (SK-MEL-2 melanoma): 744 nM | TGI (SK-MEL-2 melanoma): 3510 nM | GI50 (A549 NSCLC): 337 nM | TGI (A549 NSCLC): 5140 nM | GI50 (A498 renal): 371 nM | TGI (A498 renal): 1790 nM | GI50 (MDA-MB-435): 193 nM | TGI (MDA-MB-435): 1280 nM | GI50 (MCF7 breast): 42 nM | TGI (MCF7 breast): 532 nM | GI50 (HCT-15 colon): 1330 nM | TGI (HCT-15 colon): 3460 nM | GI50 (SK-MEL-28 melanoma): 475 nM | TGI (SK-MEL-28 melanoma): 2170 nM | GI50 (SK-MEL-5 melanoma): 71.3 nM | TGI (SK-MEL-5 melanoma): 222 nM | GI50 (HCT-116 colon): 135 nM | TGI (HCT-116 colon): 329 nM | GI50 (KM12 colon): 145 nM | TGI (KM12 colon): 884 nM | GI50 (SF-539 CNS): 256 nM | TGI (SF-539 CNS): 1280 nM | GI50 (COLO 205 colon): 99.9 nM | TGI (COLO 205 colon): 279 nM | GI50 (HOP-92 NSCLC): 97.7 nM | TGI (HOP-92 NSCLC): 504 nM | GI50 (CCRF-CEM leukemia): 107 nM | TGI (CCRF-CEM leukemia): 1180 nM | GI50 (SNB-19 CNS): 125 nM | TGI (SNB-19 CNS): 1300 nM | GI50 (EKVX NSCLC): 137 nM | TGI (EKVX NSCLC): 4740 nM | GI50 (HT29 colon): 194 nM | TGI (HT29 colon): 1050 nM | GI50 (BT-549 breast): 249 nM | TGI (BT-549 breast): 1090 nM | GI50 (MDA-MB-231 breast): 265 nM | TGI (MDA-MB-231 breast): 1480 nM | GI50 (UO-31 renal): 1670 nM | TGI (UO-31 renal): 3430 nM | GI50 (SK-OV-3 ovarian): 255 nM | TGI (SK-OV-3 ovarian): 869 nM | GI50 (CAKI-1 renal): 853 nM | TGI (CAKI-1 renal): 3270 nM | GI50 (NCI-H522 lung): 170 nM | TGI (NCI-H522 lung): 795 nM | GI50 (SN12C renal): 213 nM | TGI (SN12C renal): 1320 nM | GI50 (OVCAR-3 ovarian): 219 nM | TGI (OVCAR-3 ovarian): 1100 nM | GI50 (MALME-3M melanoma): 206 nM | TGI (MALME-3M melanoma): 908 nM | GI50 (ACHN renal): 1070 nM | TGI (ACHN renal): 3720 nM | GI50 (786-0 renal): 269 nM | TGI (786-0 renal): 530 nM | GI50 (DU-145 prostate): 351 nM | TGI (DU-145 prostate): 1730 nM | GI50 (RXF 393 renal): 293 nM | TGI (RXF 393 renal): 10700 nM | GI50 (PC-3 prostate): 130 nM | TGI (PC-3 prostate): 4040 nM | GI50 (SW-620 colon): 334 nM | TGI (SW-620 colon): 4910 nM | GI50 (UACC-257 melanoma): 150 nM | TGI (UACC-257 melanoma): 931 nM | GI50 (SR leukemia): > 100000 nM | TGI (SR leukemia): > 100000 nM | GI50 (HOP-62 NSCLC): 194 nM | TGI (HOP-62 NSCLC): 491 nM | GI50 (HL-60(TB) leukemia): 59.8 nM | TGI (HL-60(TB) leukemia): 409 nM | GI50 (RPMI-8226 leukemia): 24.7 nM | TGI (RPMI-8226 leukemia): 143 nM | GI50 (K-562 leukemia): 244 nM | GI50 (HS 578T breast): 204 nM | TGI (HS 578T breast): 1620 nM | GI50 (LOX IMVI melanoma): 299 nM | TGI (LOX IMVI melanoma): 1550 nM | GI50 (NCI-H226 lung): 284 nM | TGI (NCI-H226 lung): 915 nM | GI50 (TK-10 renal): 303 nM | TGI (TK-10 renal): 1380 nM | GI50 (T-47D breast): 48.1 nM | TGI (T-47D breast): 1040 nM | GI50 (MOLT-4 leukemia): 376 nM | TGI (MOLT-4 leukemia): 7780 nM | GI50 (UACC-62 melanoma): 312 nM | TGI (UACC-62 melanoma): 1730 nM | GI50 (SNB-75 CNS): 211 nM | TGI (SNB-75 CNS): 925 nM | GI50 (SF-295 CNS): 189 nM | TGI (SF-295 CNS): 585 nM
